# Measurements taken from PMC10507085, “Pharmacological inhibition of TBK1/IKKε blunts immunopathology in a murine model of SARS-CoV-2 infection” (Nature Communications, 2023).
# Assays:
# Assay in all cases: biochemical
# Design in all cases: KINOMEscan competition binding, DNA-tagged kinase against immobilised ligand, qPCR read-out
# Settings in all cases: read-out: Percent Control
# CSNK1G3 = CSNK1G3 (Homo sapiens, UniProt Q9Y6M4)
# CSNK1A1 = CSNK1A1 (Homo sapiens, UniProt P48729)
# CHUK = CHUK (Homo sapiens, UniProt O15111)
# PIP5K1A = PIP5K1A (Homo sapiens, UniProt Q99755)
# MYLK = MYLK (Homo sapiens, UniProt Q15746)
# CAMKK1 = CAMKK1 (Homo sapiens, UniProt Q8N5S9)
# TNIK = TNIK (Homo sapiens, UniProt Q9UKE5)
# EPHA7 = EPHA7 (Homo sapiens, UniProt Q15375)
# MAPK8 = MAPK8 (Homo sapiens, UniProt P45983)
# NLK = NLK (Homo sapiens, UniProt Q9UBE8)
# RIOK3 = RIOK3 (Homo sapiens, UniProt O14730)
# MYLK2 = MYLK2 (Homo sapiens, UniProt Q9H1R3)
# CAMK2G = CAMK2G (Homo sapiens, UniProt Q13555)
# PIK3C2G = PIK3C2G (Homo sapiens, UniProt O75747)
# BUB1 = BUB1 (Homo sapiens, UniProt O43683)
# GRK1 = GRK1 (Homo sapiens, UniProt Q15835)
# EPHB2 = EPHB2 (Homo sapiens, UniProt P29323)
# PRKG2 = PRKG2 (Homo sapiens, UniProt Q13237)
# HIPK4 = HIPK4 (Homo sapiens, UniProt Q8NE63)
# EPHB1 = EPHB1 (Homo sapiens, UniProt P54762)
# Chain of HIPK4 (Q8NE63 whole entry): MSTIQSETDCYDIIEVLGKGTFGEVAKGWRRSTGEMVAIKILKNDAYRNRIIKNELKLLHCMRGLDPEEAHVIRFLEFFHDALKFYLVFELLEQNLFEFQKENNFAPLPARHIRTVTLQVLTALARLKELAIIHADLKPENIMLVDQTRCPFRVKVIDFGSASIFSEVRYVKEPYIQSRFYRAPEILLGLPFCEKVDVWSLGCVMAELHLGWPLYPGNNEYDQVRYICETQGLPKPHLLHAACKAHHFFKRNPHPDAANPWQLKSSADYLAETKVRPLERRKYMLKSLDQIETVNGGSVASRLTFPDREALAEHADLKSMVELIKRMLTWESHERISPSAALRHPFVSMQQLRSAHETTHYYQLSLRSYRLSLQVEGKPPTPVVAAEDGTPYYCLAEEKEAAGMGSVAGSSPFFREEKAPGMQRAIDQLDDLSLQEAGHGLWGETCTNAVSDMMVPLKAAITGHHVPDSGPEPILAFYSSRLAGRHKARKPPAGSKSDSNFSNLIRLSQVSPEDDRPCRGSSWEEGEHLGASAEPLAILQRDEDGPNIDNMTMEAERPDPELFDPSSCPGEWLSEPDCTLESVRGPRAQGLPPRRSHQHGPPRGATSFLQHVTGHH
# Chain of MAPK8 (P45983 whole entry): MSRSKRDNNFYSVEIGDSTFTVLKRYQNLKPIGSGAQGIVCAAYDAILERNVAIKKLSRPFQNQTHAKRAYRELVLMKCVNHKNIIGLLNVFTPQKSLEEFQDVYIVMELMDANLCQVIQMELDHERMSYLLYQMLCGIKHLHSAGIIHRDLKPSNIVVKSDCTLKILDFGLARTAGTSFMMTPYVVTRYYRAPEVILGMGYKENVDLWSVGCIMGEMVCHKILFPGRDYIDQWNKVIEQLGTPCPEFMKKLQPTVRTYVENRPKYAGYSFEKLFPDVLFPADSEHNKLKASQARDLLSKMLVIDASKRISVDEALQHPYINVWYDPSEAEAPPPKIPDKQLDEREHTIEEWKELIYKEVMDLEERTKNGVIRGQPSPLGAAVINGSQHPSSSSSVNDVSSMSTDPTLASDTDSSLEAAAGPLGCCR
# Chain of PIP5K1A (Q99755 whole entry): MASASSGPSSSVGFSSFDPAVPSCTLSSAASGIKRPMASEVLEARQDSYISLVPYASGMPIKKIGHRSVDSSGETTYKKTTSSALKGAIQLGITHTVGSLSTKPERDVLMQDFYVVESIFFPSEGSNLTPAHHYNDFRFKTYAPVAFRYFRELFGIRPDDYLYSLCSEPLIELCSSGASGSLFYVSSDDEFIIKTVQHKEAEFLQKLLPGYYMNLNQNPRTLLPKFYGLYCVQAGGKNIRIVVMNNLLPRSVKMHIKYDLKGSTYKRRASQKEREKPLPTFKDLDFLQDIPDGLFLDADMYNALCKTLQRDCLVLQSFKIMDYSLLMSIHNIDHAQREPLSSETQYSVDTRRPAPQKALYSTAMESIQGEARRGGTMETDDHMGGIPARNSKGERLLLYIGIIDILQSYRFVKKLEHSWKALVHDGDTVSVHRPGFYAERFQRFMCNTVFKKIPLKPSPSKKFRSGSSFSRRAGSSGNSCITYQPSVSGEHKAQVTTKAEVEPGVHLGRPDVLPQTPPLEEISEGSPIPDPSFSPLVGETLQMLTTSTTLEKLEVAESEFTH
# Chain of RIOK3 (O14730 whole entry): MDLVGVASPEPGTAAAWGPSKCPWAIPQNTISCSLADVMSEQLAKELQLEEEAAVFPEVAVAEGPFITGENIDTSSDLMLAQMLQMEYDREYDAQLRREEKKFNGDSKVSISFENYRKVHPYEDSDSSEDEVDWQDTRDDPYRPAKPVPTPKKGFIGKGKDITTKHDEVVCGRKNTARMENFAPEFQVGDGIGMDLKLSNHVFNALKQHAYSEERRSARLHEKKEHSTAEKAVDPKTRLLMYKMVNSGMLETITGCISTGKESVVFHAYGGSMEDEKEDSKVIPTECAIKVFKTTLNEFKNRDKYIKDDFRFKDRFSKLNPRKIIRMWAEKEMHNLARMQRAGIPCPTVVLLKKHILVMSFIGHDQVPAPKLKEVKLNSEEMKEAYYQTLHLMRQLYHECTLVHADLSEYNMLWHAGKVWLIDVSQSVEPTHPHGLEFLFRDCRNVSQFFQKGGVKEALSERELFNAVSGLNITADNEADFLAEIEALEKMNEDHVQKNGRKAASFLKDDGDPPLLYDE
# Chain of PIK3C2G (O75747 whole entry): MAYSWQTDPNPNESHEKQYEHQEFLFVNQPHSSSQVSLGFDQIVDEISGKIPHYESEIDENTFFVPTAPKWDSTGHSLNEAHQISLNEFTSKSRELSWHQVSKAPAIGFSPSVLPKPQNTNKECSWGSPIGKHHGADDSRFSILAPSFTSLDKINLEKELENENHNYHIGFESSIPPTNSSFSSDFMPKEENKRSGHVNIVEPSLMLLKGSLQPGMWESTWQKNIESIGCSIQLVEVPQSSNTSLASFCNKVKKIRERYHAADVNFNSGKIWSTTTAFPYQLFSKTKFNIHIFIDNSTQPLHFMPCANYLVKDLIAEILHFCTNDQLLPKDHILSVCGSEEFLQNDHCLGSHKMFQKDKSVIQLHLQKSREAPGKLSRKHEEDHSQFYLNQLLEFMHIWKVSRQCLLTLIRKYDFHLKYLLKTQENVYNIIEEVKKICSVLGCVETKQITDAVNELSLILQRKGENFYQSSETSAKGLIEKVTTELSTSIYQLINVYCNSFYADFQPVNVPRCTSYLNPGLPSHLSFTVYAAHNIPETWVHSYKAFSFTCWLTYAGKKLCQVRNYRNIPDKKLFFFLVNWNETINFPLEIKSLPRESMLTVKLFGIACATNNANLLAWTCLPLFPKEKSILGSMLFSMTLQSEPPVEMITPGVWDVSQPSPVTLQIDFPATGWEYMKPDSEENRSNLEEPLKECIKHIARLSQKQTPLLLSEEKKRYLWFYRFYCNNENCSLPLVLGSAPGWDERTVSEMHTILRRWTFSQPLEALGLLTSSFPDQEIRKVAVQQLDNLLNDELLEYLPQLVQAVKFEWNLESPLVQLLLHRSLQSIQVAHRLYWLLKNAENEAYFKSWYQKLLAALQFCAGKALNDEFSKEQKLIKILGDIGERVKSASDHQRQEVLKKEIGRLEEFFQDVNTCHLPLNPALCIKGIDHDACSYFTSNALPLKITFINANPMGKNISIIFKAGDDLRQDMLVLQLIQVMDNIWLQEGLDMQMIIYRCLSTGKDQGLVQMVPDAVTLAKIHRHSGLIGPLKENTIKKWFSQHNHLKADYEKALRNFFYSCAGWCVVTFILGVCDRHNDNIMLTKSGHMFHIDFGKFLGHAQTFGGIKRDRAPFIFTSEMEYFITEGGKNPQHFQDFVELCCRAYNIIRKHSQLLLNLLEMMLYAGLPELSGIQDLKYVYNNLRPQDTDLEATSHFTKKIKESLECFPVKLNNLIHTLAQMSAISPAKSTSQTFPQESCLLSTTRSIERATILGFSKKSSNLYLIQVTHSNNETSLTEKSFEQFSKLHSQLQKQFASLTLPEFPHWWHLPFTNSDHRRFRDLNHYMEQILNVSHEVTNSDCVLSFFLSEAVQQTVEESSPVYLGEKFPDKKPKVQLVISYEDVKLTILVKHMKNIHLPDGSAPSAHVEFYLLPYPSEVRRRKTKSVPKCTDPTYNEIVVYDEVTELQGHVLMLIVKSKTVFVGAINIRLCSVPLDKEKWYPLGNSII
# Chain of EPHA7 (Q15375 whole entry): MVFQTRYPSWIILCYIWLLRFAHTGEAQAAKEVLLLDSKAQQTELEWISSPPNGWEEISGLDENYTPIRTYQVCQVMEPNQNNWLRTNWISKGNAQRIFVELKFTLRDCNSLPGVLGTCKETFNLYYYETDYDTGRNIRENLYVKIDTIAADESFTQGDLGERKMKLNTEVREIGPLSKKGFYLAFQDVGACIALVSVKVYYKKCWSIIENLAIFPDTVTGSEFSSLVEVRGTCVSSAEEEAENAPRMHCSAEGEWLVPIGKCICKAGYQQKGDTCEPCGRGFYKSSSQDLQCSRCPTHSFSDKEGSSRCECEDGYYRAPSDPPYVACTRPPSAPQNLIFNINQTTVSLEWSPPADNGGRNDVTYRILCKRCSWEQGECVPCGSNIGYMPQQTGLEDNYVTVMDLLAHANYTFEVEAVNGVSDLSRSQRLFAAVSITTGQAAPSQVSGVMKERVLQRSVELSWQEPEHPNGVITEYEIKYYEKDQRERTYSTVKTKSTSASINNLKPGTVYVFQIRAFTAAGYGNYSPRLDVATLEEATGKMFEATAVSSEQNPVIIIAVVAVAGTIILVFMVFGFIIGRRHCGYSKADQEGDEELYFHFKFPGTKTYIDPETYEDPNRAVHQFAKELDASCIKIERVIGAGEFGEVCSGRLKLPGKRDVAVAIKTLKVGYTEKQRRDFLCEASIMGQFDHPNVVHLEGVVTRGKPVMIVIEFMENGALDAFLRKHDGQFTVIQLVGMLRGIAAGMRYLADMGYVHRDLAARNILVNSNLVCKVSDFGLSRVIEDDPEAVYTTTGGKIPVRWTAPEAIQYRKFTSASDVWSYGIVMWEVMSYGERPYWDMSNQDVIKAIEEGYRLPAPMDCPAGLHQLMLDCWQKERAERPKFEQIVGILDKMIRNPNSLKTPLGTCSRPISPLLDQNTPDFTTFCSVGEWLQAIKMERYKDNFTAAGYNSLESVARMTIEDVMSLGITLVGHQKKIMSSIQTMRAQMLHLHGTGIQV
# Chain of CSNK1A1 (P48729 whole entry): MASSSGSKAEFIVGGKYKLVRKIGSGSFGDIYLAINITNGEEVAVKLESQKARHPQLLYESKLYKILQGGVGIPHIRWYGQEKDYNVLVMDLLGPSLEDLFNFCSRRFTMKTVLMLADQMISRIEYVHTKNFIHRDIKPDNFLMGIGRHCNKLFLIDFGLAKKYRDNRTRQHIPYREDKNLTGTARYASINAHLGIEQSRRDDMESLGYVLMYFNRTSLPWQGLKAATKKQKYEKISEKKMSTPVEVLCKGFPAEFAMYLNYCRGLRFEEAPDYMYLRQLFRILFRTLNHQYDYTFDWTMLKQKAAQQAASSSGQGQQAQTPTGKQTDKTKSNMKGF
smiles,measurement,setting,value
"Oc1ccc(C2=Cc3ccc(O)cc3OC2)cc1 [compound 1, idronoxil]",remaining binding at 10 µM,CSNK1G3,100%
same,remaining binding at 10 µM,CSNK1A1,86%
same,remaining binding at 10 µM,CHUK,81%
same,remaining binding at 10 µM,PIP5K1A,75%
same,remaining binding at 10 µM,MYLK,52%
same,remaining binding at 10 µM,CAMKK1,78%
same,remaining binding at 10 µM,TNIK,56%
same,remaining binding at 10 µM,EPHA7,96%
same,remaining binding at 10 µM,MAPK8,68%
same,remaining binding at 10 µM,NLK,67%
same,remaining binding at 10 µM,RIOK3,100%
same,remaining binding at 10 µM,MYLK2,80%
same,remaining binding at 10 µM,CAMK2G,85%
same,remaining binding at 10 µM,PIK3C2G,73%
same,remaining binding at 10 µM,BUB1,91%
same,remaining binding at 10 µM,GRK1,100%
same,remaining binding at 10 µM,EPHB2,86%
same,remaining binding at 10 µM,PRKG2,71%
same,remaining binding at 10 µM,HIPK4,75%
same,remaining binding at 10 µM,EPHB1,84%
